Measurements: patent US12528812B2 (Genentech, Inc., priority 2020, dated 2026)
Read-outs that look alike come from different tables or passages of the source.

Tests used:
[1] = target: T1, recombinant human JAK1 kinase domain protein (Residues 854-1154) (Homo sapiens, UniProt P23458); experiment: JAK1 biochemical assay (LabChip mobility shift, Ki); conditions: read-out: Biochem JAK1 Ki
T1 construct: human JAK1 kinase domain protein (Residues 854-1154); purchased Proteros Biostructures GmbH (Martinsried, Germany); host or cells: insect cells
T1 sequence (P23458 854-1154): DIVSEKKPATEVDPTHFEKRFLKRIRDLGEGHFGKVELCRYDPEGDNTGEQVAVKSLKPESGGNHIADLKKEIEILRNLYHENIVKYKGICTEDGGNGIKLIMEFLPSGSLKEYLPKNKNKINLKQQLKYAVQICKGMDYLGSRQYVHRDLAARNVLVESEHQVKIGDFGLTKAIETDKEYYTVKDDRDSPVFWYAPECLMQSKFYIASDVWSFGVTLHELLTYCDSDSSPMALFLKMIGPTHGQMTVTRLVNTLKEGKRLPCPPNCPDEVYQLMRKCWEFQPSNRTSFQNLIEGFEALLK

[2] = system: EPO-stimulated P-STAT5 in TF-1 human erythroleukemia cells; experiment: P-STAT5 TF-1 + EPO assay (JAK2 pathway); type: cell-based; conditions: EPO stimulation, read-out: Cellular JAK2 PSTAT5 TF-1 + EPO
Method: (§1) TF-1 human erythroleukemia cells (ATCC′; Manassas, VA; Catalog No. CRL-2003™) were grown in Roswell Park Memorial Institute (RPMI) medium supplemented with 10% heat-inactivated fetal bovine serum (FBS), 2 ng/mL granulocyte-macrophage colony-stimulating factor, 1× non-essential amino acids (NEAA), and 1 mM sodium pyruvate. The day before the assay, the cultures were transferred to Opti-MEM™, 1×NEAA, 1 mM sodium pyruvate, and 0.5% charcoal-stripped FBS (starve medium). Inhibitor stock solutions (5 mM in DMSO) were serially diluted 1:2 in DMSO to generate a 10-point concentration titration (at 500× test concentration), which was further diluted by a 50-fold dilution in Assay Medium (RPMI containing 1×NEAA and 1 mM sodium pyruvate) to generate a 10× concentration titration (in 2% DMSO). The cells (300,000 cells/well in 35 μL of Assay Medium) were seeded in 384-well Greiner plates. Diluted inhibitor at 10× concentration (5 μL) was added to the cells and the plates were incubated for 30 minutes at 37° C. in a humidified incubator. Cells were stimulated with the human recombinant cytokine at the respective EC90 concentrations, as previously determined for each individual lot. For the phosphorylated signal transducer and activator of transcription 6 (P-STAT6) TF-1+Interleukin-13 (IL-13) assay, 10 μL of 250 ng/mL IL-13 (R&D Systems; Minneapolis, MN) was added to the cells, which were then incubated for 10 minutes at 37° C. For the P-STAT5 TF-1+Erythropoietin (EPO) assay, 10 μL of 110 IU/mL EPO (Gibco Life Technologies, Catalog No. PHC2054) was added to the cells, which were then incubated for […] at 37° C. For both assays, the incubation was followed by addition to the cells of 5 μL of ice-cold 10× cell lysis buffer (Cell Signaling Technologies; Danvers, MA; Catalog No. 9803S) containing 1 mM phenylmethylsulfonyl fluoride (PMSF). Assay plates were frozen at −80° C. for a minimum of 1 hour. In the IL-13 assay, P-STAT6 was measured by coating goat anti-rabbit (GAR) plates (Meso Scale Discovery [MSD]; Rockville, MD; Catalog No. MSD L21RA-1) with rabbit anti-human total STAT6 antibody (Cell Signaling Technologies; Catalog No. 9362S), incubating the cell lysates in the coated plates overnight at 4° C., and then detecting with mouse anti-P-STAT6 (Tyr641) Clone 16E12 antibody (MilliporeSigma; Burlington, MA; Catalog No. 05-590, custom labeled by MSD with SULFO-tag) using standard MSD plate processing, washing, and detection protocols. In the EPO assay, P-STAT5 was detected using the phospho-STAT5a,b Whole Cell Lysate Kit (MSD; Catalog No. K150IGD-1). The electrochemiluminescence (ECL) signal of wells was read on the MESO SECTOR 5600 (MSD) reader.
(§2) Data analysis was performed by subtracting the negative control (cytokine stimulated and 20 μM control inhibitor-treated cells) mean ECL value from the ECL value of all wells, determining percent of control for test compound well ECL values relative to the positive control (cytokine stimulated and DMSO-treated cells) mean ECL value, and determining the IC50 for test compounds with a four-parameter logistic fit model as shown in Equation 4.

[3] = system: IL-13-stimulated STAT6 phosphorylation in human lung bronchial epithelial BEAS-2B cell line; experiment: P-STAT6 BEAS-2B + IL-13 cell assay; type: cell-based; conditions: BEAS2B cells, IL13 stimulation, read-out: Cellular JAK1 PSTAT6 BEAS2B + IL13
Outline: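 Phospho-STAT6 (Tyr641) was quantified in lysates by MSD electrochemiluminescence after human IL-13 challenge (250 ng/mL stock, 15 min, 37 °C). Before that, BEAS-2B cells cultured 48 h had 1 h compound exposure over 10 concentrations. Percent of control was fitted to a four-parameter logistic model to give IC50.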

[4] = system: IL-13-stimulated P-STAT6 in TF-1 human erythroleukemia cells; experiment: P-STAT6 TF-1 + IL-13 assay (JAK1 pathway); type: cell-based; conditions: IL13 stimulation, read-out: Cellular JAK1 PSTAT6 TF-1 + IL13
Method: as §1, §2

[5] = target: Recombinant human JAK2 kinase domain protein (Residues 812-1132) (Homo sapiens, UniProt O60674); experiment: JAK2 biochemical assay (LabChip mobility shift, Ki); conditions: Biochem JAK2 Ki
Chain of Recombinant human JAK2 kinase domain protein (Residues 812-1132) (O60674 812-1132): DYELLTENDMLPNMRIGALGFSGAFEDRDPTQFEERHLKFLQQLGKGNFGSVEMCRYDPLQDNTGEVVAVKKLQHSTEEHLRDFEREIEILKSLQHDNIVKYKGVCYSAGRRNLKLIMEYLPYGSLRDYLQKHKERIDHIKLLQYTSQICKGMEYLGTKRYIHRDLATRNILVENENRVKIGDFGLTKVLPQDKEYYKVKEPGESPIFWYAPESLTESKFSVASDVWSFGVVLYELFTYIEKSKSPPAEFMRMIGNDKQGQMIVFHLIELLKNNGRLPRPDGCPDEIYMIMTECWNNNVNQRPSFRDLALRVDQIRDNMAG

Structure (SMILES)	Ki [1]	IC50 ([2]; Homo sapiens, TF-1, TF-1 cells)	IC50 ([3]; Homo sapiens, BEAS-2B)	IC50 ([4]; Homo sapiens, TF-1, TF-1 cells)	Ki [5]	IC50 ([4]; TF-1 cells)	IC50 ([2]; TF-1 cells)	IC50 [3]
CN1CC(O)(c2cccc(Oc3ccc(OC(F)F)c(-c4nn(C)cc4NC(=O)c4cnn5cccnc45)c3)c2)C1 [Example 79, N-[3-[2-(difluoromethoxy)-5-[3-(3-hydroxy-l-methyl-azetidin-3-yl)phenoxy]phenyl]-1-methyl-pyrazol-4-yl]pyrazolo[1,5-a]pyrimidine-3-carboxamide]	0.24 nM	4.8 nM	8 nM	8.2 nM	0.25 nM	–	–	–
Cn1cc(NC(=O)c2cnn3cccnc23)c(-c2cc(Oc3cccc(C4CNCCO4)c3)ccc2OC(F)F)n1 (stereo not shown) [Example 82, N-[3-[2-(difluoromethoxy)-5-(3-morpholin-2-ylphenoxy)phenyl]-1-methyl-pyrazol-4-yl]pyrazolo[1,5-a]pyrimidine-3-carboxamide]	0.58 nM	15 nM	51 nM	8.4 nM	0.6 nM	–	–	–
CN1CC(O)(c2cc(F)cc(Oc3ccc(OC(F)F)c(-c4nn(C)cc4NC(=O)c4cnn5cccnc45)c3)c2)C1 [Example 96, N-[3-[2-(difluoromethoxy)-5-[3-fluoro-5-(3-hydroxy-1-methyl-azetidin-3-yl)phenoxy]phenyl]-1-methyl-pyrazol-4-yl]pyrazolo[1,5-a]pyrimidine-3-carboxamide]	0.25 nM	3 nM	13 nM	5.2 nM	0.26 nM	–	–	–
Cn1cc(NC(=O)c2cnn3cccnc23)c(-c2cc(Oc3cnn(CCO)c3)ccc2OC(F)F)n1 [Example 113, N-[3-[2-(difluoromethoxy)-5-[1-(2-hydroxyethyl)pyrazol-4-yl]oxy-phenyl]-1-methyl-pyrazol-4-yl]pyrazolo[1,5-a]pyrimidine-3-carboxamide]	0.3 nM	13 nM	20 nM	7 nM	0.14 nM	–	–	–
Cn1cc(NC(=O)c2cnn3cccnc23)c(-c2cc(Oc3cnn(C4COC4)c3)ccc2OC(F)F)n1 [Example 114, N-[3-[2-(difluoromethoxy)-5-[1-(oxetan-3-yl)pyrazol-4-yl]oxy-phenyl]-1-methyl-pyrazol-4-yl]pyrazolo[1,5-a]pyrimidine-3-carboxamide]	0.84 nM	29 nM	29 nM	6 nM	0.49 nM	–	–	–
CN1CC(O)(Cn2cc(Oc3ccc(OC(F)F)c(-c4nn(C)cc4NC(=O)c4cnn5cccnc45)c3)cn2)C1 [Example 128, N-[3-[2-(difluoromethoxy)-5-[1-[(3-hydroxy-l-methyl-azetidin-3-yl)methyl]pyrazol-4-yl]oxy-phenyl]-1-methyl-pyrazol-4-yl]pyrazolo[1,5-a]pyrimidine-3-carboxamide]	0.52 nM	52 nM	30 nM	51 nM	0.41 nM	–	–	–
Cn1cc(NC(=O)c2cnn3cccnc23)c(-c2cc(Oc3cnn(C(F)F)c3)ccc2OC(F)F)n1 [Example 132, N-[3-[2-(difluoromethoxy)-5-[1-(difluoromethyl)pyrazol-4-yl]oxy-phenyl]-1-methyl-pyrazol-4-yl]pyrazolo[1,5-a]pyrimidine-3-carboxamide]	0.4 nM	7.6 nM	14 nM	4.6 nM	0.24 nM	–	–	–
CN(C)Cc1cncc(Oc2ccc(OC(F)F)c(-c3nn(C)cc3NC(=O)c3cnn4cccnc34)c2)c1 [Example 133, N-[3-[2-(difluoromethoxy)-5-[[5-[(dimethylamino)methyl]-3-pyridyl]oxy]phenyl]-1-methyl-pyrazol-4-yl]pyrazolo[1,5-a]pyrimidine-3-carboxamide]	1.1 nM	24 nM	62 nM	13 nM	1.2 nM	–	–	–
Cn1ccc(Oc2ccc(OC(F)F)c(-c3nn(C)cc3NC(=O)c3cnn4cccnc34)c2)n1 [Example 143, N-[3-[2-(difluoromethoxy)-5-(1-methylpyrazol-3-yl)oxy-phenyl]-1-methyl-pyrazol-4-yl]pyrazolo[1,5-a]pyrimidine-3-carboxamide]	0.69 nM	23 nM	26 nM	3 nM	0.36 nM	–	–	–
Cn1cc(NC(=O)c2cnn3cccnc23)c(-c2cc(Oc3cn[nH]c3)ccc2OC(F)F)n1 [Example 160, N-[3-[2-(difluoromethoxy)-5-(1H-pyrazol-4-yloxy)phenyl]-1-methyl-pyrazol-4-yl]pyrazolo[1,5-a]pyrimidine-3-carboxamide]	0.1 nM	3.6 nM	8.3 nM	2.1 nM	0.07 nM	–	–	–
O=C(Nc1c[nH]nc1-c1cc(Oc2cn[nH]c2)ccc1OC(F)F)c1cnn2cccnc12 [Example 173, N-[3-[2-(difluoromethoxy)-5-(1H-pyrazol-4-yloxy)phenyl]-1H-pyrazol-4-yl]pyrazolo[1,5-a]pyrimidine-3-carboxamide]	0.13 nM	68 nM	82 nM	24 nM	0.076 nM	–	–	–
CN1CC(O)C(n2cc(Oc3ccc(OC(F)F)c(-c4nn(C)cc4NC(=O)c4cnn5cccnc45)c3)cn2)C1 (stereo not drawn) [Example 178, N-[3-[2-(difluoromethoxy)-5-[1-(4-hydroxy-l-methyl-pyrrolidin-3-yl)pyrazol-4-yl]oxy-phenyl]-1-methyl-pyrazol-4-yl]pyrazolo[1,5-a]pyrimidine-3-carboxamide]	0.29 nM	49 nM	32 nM	–	0.21 nM	26 nM	–	–
CN1CC(O)C(n2cc(Oc3ccc(OC(F)F)c(-c4nn(C)cc4NC(=O)c4cnn5cccnc45)c3)cn2)C1 (stereo not drawn) [Example 179, N-[3-[2-(difluoromethoxy)-5-[1-(4-hydroxy-l-methyl-pyrrolidin-3-yl)pyrazol-4-yl]oxy-phenyl]-1-methyl-pyrazol-4-yl]pyrazolo[1,5-a]pyrimidine-3-carboxamide]	0.82 nM	–	–	–	0.4 nM	92 nM	72 nM	50 nM
CN1CCC(n2cc(Oc3ccc(OC(F)F)c(-c4nn(C)cc4NC(=O)c4cnn5cccnc45)c3)cn2)C(O)C1 (stereo not shown) [Example 186, N-[3-[2-(difluoromethoxy)-5-[1-(3-hydroxy-1-methyl-4-piperidyl)pyrazol-4-yl]oxy-phenyl]-1-methyl-pyrazol-4-yl]pyrazolo[1,5-a]pyrimidine-3-carboxamide]	0.76 nM	58 nM	48 nM	22 nM	0.39 nM	–	–	–
